Laboratory results as given in ChEMBL document CHEMBL1149598, “Synthesis of neutral and cationic tripyridylporphyrin-D-galactose conjugates and the photoinactivation of HSV-1” (Bioorg Med Chem, 2007).

Tests used:
[1] = (§1) Phototoxicity against 50 mW/cm^2 white light irradiated Vero cells assessed as viable cells pretreated at 0.05 uM after 48 hrs by MTT assay; format: cell-based; settings: chlorocebus sabaeus, Vero cells; read-out: Activity
[2] = (§2) Phototoxicity against 50 mW/cm^2 white light irradiated Vero cells assessed as viable cells assessed as viable cells pretreated at 0.5 uM after 48 hrs by MTT assay; format: cell-based; settings: chlorocebus sabaeus, Vero cells; read-out: Activity
Human alphaherpesvirus 1 [3] = test: Inhibition of HSV1 infected Vero cells treated at 0.02 uM assessed virus yield after 4 hrs under dark condition; format: functional; settings: Human alphaherpesvirus 1, Vero
[4] = Photostability assessed after irradiation with 50 mW/cm^2 white light for 3 mins; format: ADME; settings: 0.05 h
Human alphaherpesvirus 1 [5] = test: Inhibition of HSV1 infected Vero cells treated at 0.02 uM assessed virus yield after 2 hrs of irradiated with 50 mW/ cm^2 white light for 15 mins; format: functional; settings: Human alphaherpesvirus 1, Vero, light or radiation study
Human alphaherpesvirus 1 [6] = test: Inhibition of HSV1 infected Vero cells treated at 0.02 uM assessed virus yield under dark condition; format: functional; settings: Human alphaherpesvirus 1, Vero
Human alphaherpesvirus 1 [7] = test: Virucidal activity against HSV1 at 0.02 uM; format: functional; settings: for inhibition at 0.02 µM: Human alphaherpesvirus 1
[8] = (§3) Phototoxicity against 50 mW/cm^2 white light irradiated Vero cells assessed as viable cells pretreated at 2.5 uM after 48 hrs by MTT assay; format: cell-based; settings: chlorocebus sabaeus, Vero cells; read-out: Activity
Human alphaherpesvirus 1 [9] = test: Inhibition of HSV1 infected Vero cells treated at 0.02 uM assessed virus yield after 4 hrs of irradiated with 50 mW/ cm^2 white light for 15 mins; format: functional; settings: Human alphaherpesvirus 1, Vero, light or radiation study
[10] = (§4) Phototoxicity against 50 mW/cm^2 white light irradiated Vero cells assessed as viable cells pretreated at 1.0 uM after 48 hrs by MTT assay; format: cell-based; settings: chlorocebus sabaeus, Vero cells; read-out: Activity
[11] = Photostability assessed after irradiation with 50 mW/cm^2 white light for 5 mins; format: ADME
[12] = (§5) Phototoxicity against 50 mW/cm^2 white light irradiated Vero cells assessed as viable cells pretreated at 0.1 uM after 48 hrs by MTT assay; format: cell-based; settings: chlorocebus sabaeus, Vero cells; read-out: Activity
[13] = Photostability assessed after irradiation with 50 mW/cm^2 white light for 10 mins; format: ADME
[14] = (§6) Phototoxicity against 50 mW/cm^2 white light irradiated Vero cells assessed as viable cells pretreated at 0.01 uM after 48 hrs by MTT assay; format: cell-based; settings: chlorocebus sabaeus, Vero cells; read-out: Activity
Human alphaherpesvirus 1 [15] = test: Inhibition of HSV1 infected Vero cells treated at 0.02 uM assessed virus yield irradiated with 50 mW/ cm^2 white light for 15 mins; format: functional; settings: Human alphaherpesvirus 1, Vero, light or radiation study, 0.25 h
Human alphaherpesvirus 1 [16] = test: Inhibition of HSV1 infected Vero cells treated at 0.02 uM assessed virus yield after 16 hrs of irradiated with 50 mW/ cm^2 white light for 15 mins; format: functional; settings: Human alphaherpesvirus 1, Vero, light or radiation study
[17] = Photostability assessed after irradiation with 50 mW/cm^2 white light for 1 min; format: ADME
Human alphaherpesvirus 1 [18] = test: Inhibition of HSV1 infected Vero cells treated at 0.02 uM assessed virus yield after 16 hrs under dark condition; format: functional; settings: Human alphaherpesvirus 1, Vero
Human alphaherpesvirus 1 [19] = test: (§7) Virucidal effect against HSV1 pretreated at 0.02 uM after 5 mins of irradiation with 50 mW/cm^2 white light; format: functional; settings: for inhibition at 0.02 µM: Human alphaherpesvirus 1, light or radiation study
[20] = Photostability assessed after irradiation with 50 mW/cm^2 white light for 15 mins; format: ADME; settings: 0.25 h
Human alphaherpesvirus 1 [21] = test: as §7; format: functional; settings: for inhibition at 0.02 µM: Human alphaherpesvirus 1, light or radiation study; remark: listed apart in the source
Human alphaherpesvirus 1 [22] = test: Inhibition of HSV1 infected Vero cells treated at 0.02 uM assessed virus yield after 2 hrs under dark condition; format: functional; settings: Human alphaherpesvirus 1, Vero
Vero [23] = test: as §1; format: cell-based; settings: chlorocebus sabaeus, vero, 48 h, 0.05 µM
Vero [24] = test: as §2; format: cell-based; settings: chlorocebus sabaeus, vero, 48 h, 0.5 µM
Vero [25] = test: as §3; format: cell-based; settings: chlorocebus sabaeus, vero, 48 h, 2.5 µM
Vero [26] = test: as §4; format: cell-based; settings: chlorocebus sabaeus, vero, 48 h, 1 µM
Vero [27] = test: as §5; format: cell-based; settings: chlorocebus sabaeus, vero, 48 h, 0.1 µM
Vero [28] = test: as §6; format: cell-based; settings: chlorocebus sabaeus, vero, 48 h, 0.01 µM

Compound	viability at 48 h, 0.05 µM [1]	viability at 48 h, 0.5 µM [2]	Activity [4]	inhibition at 0.02 µM (Human alphaherpesvirus 1 [7])	viability at 48 h, 2.5 µM [8]	viability at 48 h, 1 µM [10]	Activity [11]	viability at 48 h, 0.1 µM [12]	Activity [13]	viability at 48 h, 0.01 µM [14]	Activity [17]	inhibition at 0.02 µM (Human alphaherpesvirus 1 [19])	Activity [20]	inhibition at 0.02 µM (Human alphaherpesvirus 1 [21])	other results
O=C(OC[C@H]1OC(O)[C@H](O)[C@@H](O)[C@H]1O)c1ccc(-c2c3nc(c(-c4ccncc4)c4ccc([nH]4)c(-c4ccncc4)c4nc(c(-c5ccncc5)c5ccc2[nH]5)C=C4)C=C3)cc1 (some centres undefined)	98.4%	55.5%	98%	28.6%	4.4%	27.2%	97%	92.3%	88%	108%	100%	85.6%	83%	44.5%	inhibition at 0.02 µM (Human alphaherpesvirus 1 [3]): 0%; inhibition at 0.02 µM (Human alphaherpesvirus 1 [5]): 79.2%; inhibition at 0.02 µM (Human alphaherpesvirus 1 [6]): 0%; inhibition at 0.02 µM (Human alphaherpesvirus 1 [9]): 93.6%; inhibition at 0.02 µM (Human alphaherpesvirus 1 [15]): 71.1%; inhibition at 0.02 µM (Human alphaherpesvirus 1 [16]): 95.7%; inhibition at 0.02 µM (Human alphaherpesvirus 1 [18]): 45.8%; inhibition at 0.02 µM (Human alphaherpesvirus 1 [22]): 0%
CC1(C)O[C@H]2[C@@H](O1)[C@@H](COC(=O)c1ccc(-c3c4nc(c(-c5ccncc5)c5ccc([nH]5)c(-c5ccncc5)c5nc(c(-c6ccncc6)c6ccc3[nH]6)C=C5)C=C4)cc1)O[C@@H]1OC(C)(C)O[C@@H]12			98%				98%		94%		98%		93%		Activity (Vero [23]): 96.4%; Activity (Vero [24]): 36.4%; Inhibition (Human alphaherpesvirus 1 [7]): 27.7%; Activity (Vero [25]): 6.4%; Activity (Vero [26]): 14.4%; Activity (Vero [27]): 93.9%; Activity (Vero [28]): 100.8%; Inhibition (Human alphaherpesvirus 1 [19]): 78.9%; Inhibition (Human alphaherpesvirus 1 [21]): 36.4%
O=C(O)c1ccc(-c2c3nc(c(-c4ccncc4)c4ccc([nH]4)c(-c4ccncc4)c4nc(c(-c5ccncc5)c5ccc2[nH]5)C=C4)C=C3)cc1 [PORPHIRIN]	95.7%	76.6%	99%	8.9%	11.4%	39.7%	96%	90.6%	92%	105%	99%	90.5%	87%	52.9%	
C[n+]1ccc(-c2c3nc(c(-c4cc[n+](C)cc4)c4ccc([nH]4)c(-c4cc[n+](C)cc4)c4nc(c(-c5ccc(C(=O)O)cc5)c5ccc2[nH]5)C=C4)C=C3)cc1.[I-].[I-].[I-]	98.6%	89.2%	98%	16.7%	56.3%	76.6%	98%	96.7%	98%	110%	98%	63.3%	97%	50%	
